Patent EP2431387A1, “A raft deficient yeast expression system for the production of recombinant membrane proteins” (Centre National de la Recherche Scientifique (C.N.R.S), priority 2010, dated 2012)
Where two headings read alike, the source gives them in different places.

How the values were obtained:
[1] = biological target: T1, MTR1A (Homo sapiens, UniProt P48039)
Description: (§1) For saturation binding assays, increasing concentrations of radioactive ligands ranging from 1 to 30 nM were added to 10 µg of proteins diluted in binding buffer (30 mM HEPES, pH 7.7, 0.15 M NaCl and 0.1% BSA). […] Non-specific binding was determined by the addition of 10 µM « cold » ligands using spiperone, prazozine, yohimbine and melatonin for DRD2, ADRA1, ADR2B and MTR1A, respectively. After 1-h incubation at RT, the reaction was terminated by rapid filtration of the samples through GF/B filters presoaked in 1 % polyethylenimine. The filters were washed 3 times with ice-cold buffer (Tris-HCI 50 mM, pH 7.4), and the radioactivity was measured by liquid-scintillation counting. The equilibrium dissociation constant, KD and the maximal number of binding sites, Bmax for radioligands were determined. The data were expressed as the mean ± standard error (SE) for at least three independant experiments performed in triplicate. Data were fitted through non-linear regression analysis with the one-site saturation binding model using the Prism 4 program of GraphPad.

[2] = biological target: T1, MTR1A; remark: listed apart in the source
Description: as §1
(§2) Saturation binding experiments were performed on CHAPS/CHS solubilized receptors the same way than described in Example 4 in order to test receptor activity and stability (FIG.5).

[3] = biological target: T2, ADRA1A (Homo sapiens, UniProt P35348)
T2 sequence (P35348 whole entry): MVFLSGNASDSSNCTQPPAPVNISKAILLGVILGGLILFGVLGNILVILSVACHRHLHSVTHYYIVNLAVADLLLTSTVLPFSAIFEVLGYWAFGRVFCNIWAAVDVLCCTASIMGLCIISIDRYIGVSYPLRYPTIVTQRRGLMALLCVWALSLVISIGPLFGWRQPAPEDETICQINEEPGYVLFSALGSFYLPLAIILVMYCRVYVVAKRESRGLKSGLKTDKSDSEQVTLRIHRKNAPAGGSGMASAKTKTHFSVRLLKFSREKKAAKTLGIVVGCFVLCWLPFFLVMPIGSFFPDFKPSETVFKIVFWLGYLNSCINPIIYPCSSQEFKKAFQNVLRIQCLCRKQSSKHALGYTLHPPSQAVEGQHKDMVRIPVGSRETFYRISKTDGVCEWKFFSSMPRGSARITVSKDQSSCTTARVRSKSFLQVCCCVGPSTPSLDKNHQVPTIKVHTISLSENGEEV
Description: as §1

[4] = biological target: T2, ADRA1A; details: ADRA1A solubilized (CHAPS/CHS) from membranes of erg6 cells
Description: as §1, §2

[5] = biological target: T3, DRD2 (Homo sapiens, UniProt P14416); assay: Saturation radioligand binding assay on CHAPS/CHS solubilized receptors; details: DRD2 solubilized (CHAPS/CHS) from membranes of erg6 cells
T3 sequence (P14416 whole entry): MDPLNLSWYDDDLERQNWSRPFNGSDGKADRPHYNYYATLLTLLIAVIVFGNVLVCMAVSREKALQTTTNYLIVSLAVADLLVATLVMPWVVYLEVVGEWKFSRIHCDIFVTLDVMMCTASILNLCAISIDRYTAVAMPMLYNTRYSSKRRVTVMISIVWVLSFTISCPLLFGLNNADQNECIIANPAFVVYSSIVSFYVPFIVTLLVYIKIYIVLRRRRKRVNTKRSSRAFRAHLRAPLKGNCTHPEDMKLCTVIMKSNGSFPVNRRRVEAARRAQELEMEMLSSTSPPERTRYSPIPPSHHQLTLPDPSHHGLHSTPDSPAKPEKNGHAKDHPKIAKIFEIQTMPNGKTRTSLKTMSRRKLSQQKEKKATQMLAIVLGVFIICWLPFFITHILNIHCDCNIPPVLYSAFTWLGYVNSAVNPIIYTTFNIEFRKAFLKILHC
Description: as §1, §2

[6] = biological target: T3, DRD2; assay: Saturation radioligand binding assay on crude membranes of P. pastoris cells; details: DRD2 expressed in membranes of erg6 cells
Description: as §1

T1 sequence (P48039 whole entry): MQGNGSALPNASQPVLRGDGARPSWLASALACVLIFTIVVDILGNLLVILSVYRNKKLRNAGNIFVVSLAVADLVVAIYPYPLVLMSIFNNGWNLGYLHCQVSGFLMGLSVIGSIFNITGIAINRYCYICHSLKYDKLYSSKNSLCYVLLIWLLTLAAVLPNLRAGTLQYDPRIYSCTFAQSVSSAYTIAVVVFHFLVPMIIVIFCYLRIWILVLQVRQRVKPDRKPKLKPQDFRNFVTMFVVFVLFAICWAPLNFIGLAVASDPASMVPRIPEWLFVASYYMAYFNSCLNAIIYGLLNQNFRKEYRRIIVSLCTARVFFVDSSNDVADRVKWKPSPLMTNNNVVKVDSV

COc1ccc2[nH]cc(CCNC(C)=O)c2c1 [[3H]-Melatonin]
Bmax ([1]; MTR1A expressed in membranes of WT cells): 4.86 ± 0.38 pmol/mg | Bmax ([1]; MTR1A expressed in membranes of erg6 cells): 1.35 ± 0.30 pmol/mg | Bmax ([2]; MTR1A solubilized (CHAPS/CHS) from membranes of WT cells): 2.91 ± 0.29 pmol/mg | Bmax ([2]; MTR1A solubilized (CHAPS/CHS) from membranes of erg6 cells): 5.13 ± 0.32 pmol/mg

COc1cc2nc(N3CCN(C(=O)c4ccco4)CC3)nc(N)c2cc1OC [[3H]-Prazozine]
Bmax ([3]; ADRA1A expressed in membranes of WT cells): 15.72 ± 2.09 pmol/mg | Bmax ([3]; ADRA1A expressed in membranes of erg6 cells): 35.74 ± 1.11 pmol/mg | Bmax [4]: 11.34 ± 0.71 pmol/mg

O=C(CCCN1CCC2(CC1)C(=O)NCN2c1ccccc1)c1ccc(F)cc1 [[3H]-Spiperone]
Bmax [5]: 42.79 ± 4.71 pmol/mg | Bmax [6]: 62.20 ± 16.42 pmol/mg
